Source: paper PMC12072186, “A Novel Small Molecule Enhances Stable Dopamine Delivery to the Brain in Models of Parkinson’s Disease” (International Journal of Molecular Sciences, 2025)
Entries after “also recorded” stand apart in the source; their conditions may differ.

Experiments:
[1] = tested on: MPTP-treated C57BL/6 mice; test: Grip strength test in MPTP-treated mice; type: in vivo, mouse; conditions: MPTP 25 mg/kg i.p. day 1–5; treatment day 1–13; vs MPTP vehicle control
Protocol: MPTP was injected to male C57BL/6 mice for 5 consecutive days (Figure 4A) to destroy DA neurons, and then the mice were treated with Pegasus alone or Pegasus + Benserazide compared to L-dopa alone or L-Dopa + Benserazide.
From day 1 to day 5, MPTP was administered to all the groups except Naive at a dose of 25 mg/kg, i.p., QD. Treatment with Pegasus alone (50 mg/kg, i.p., BID), a combination of Pegasus 50 mg/kg, BID + Benserazide 10 mg/kg, QD, or a combination of L-Dopa 10 mg/kg, QD + Benserazide 10 mg/kg, QD or standalone L-Dopa 10 mg/kg, QD, started on day 1 and continued until day 13. On day 13, after the first dose of Pegasus, 4 animals/time point from each group were sacrificed at 0.5, 1, 3, 6, and 12 h, and the blood and brains were collected.
The maximal muscle/grip strength of forelimbs was measured using a strength meter.

[2] = tested on: DA and its metabolite HVA; test: DA and HVA ELISA on serum and brain extracts of TgA53T mice; type: in vivo, mouse; conditions: 50 mg/kg, 12–13-month-old TgA53T mice, vs DMSO
human alpha-synuclein = test: Western blot of soluble brain extracts for alpha-synuclein; type: in vivo, mouse; conditions: young TgA53T mice (6–7 months old), vs D5 and DMSO
Protocol: The concentration of CNS alpha-synuclein via ELISA was reduced in the brain lysates of old (11–12-month-old) TgA53T mice treated with Pegasus compared to DMSO-treated controls (Figure 5I).
To extract the soluble proteins, whole brain tissues, which excluded the olfactory bulb, cerebellum, and spinal cord, were isolated and homogenized in 1 × STEN buffer (50 mM Tris (pH 7.6), 150 mM NaCl, 2 mM EDTA, 0.2% NP-40, 0.2% BSA, 20 mM PMSF, and protease cocktail inhibitor). The proteins were quantified and normalized for WB (and ELISA) on 4–12% Criterion™ XT Bis-Tris Protein Gel (Cat No: 3450125, Bio-rad, Hercules, CA, USA). Beta-actin (β-actin) was probed (1:3000) with monoclonal antibody (Cat No: MAB1501R, Emdmillipore, Danvers, MA, USA). Human alpha-synuclein was probed (1:4000) with monoclonal antibody (Cat No: AHB0261, Thermo Fisher, Waltham, MA, USA). Human oligomeric alpha-synuclein was probed (1:500) with anti-alpha-synuclein oligomer-specific syn33 antibody (Cat No: ABN2265, Sigma-Aldrich, St. Louis, MO, USA). WBs were quantified by densitometry using Quantity One 4.6.3 software (Bio Rad, Hercules, CA, USA) and Image J version 1.54m.

caspase-3 activity = test: Tissue toxicity via caspase-3 activity assay; type: in vivo; conditions: liver, brain, kidney, lung, spleen, heart, serum, small intestine; young TgA53T mice; vs naïve, DMSO and D5
Protocol: We further verified cell death via caspase-3 activity assays of the liver, brain, kidney, lung, spleen, heart, serum, and small intestine in young TgA53T mice (6–7 months old).
Tissue toxicity was assessed in young (6–7-month-old) and old (12–13-month-old) A53T mice. The mice received daily i.p. escalating doses of Pegasus or control D5 (tetracycline derivative with no DA) vs. DMSO of 10, 25, 50, and 100 mg/kg for 4 days with each dose up to 16 days, and tissues were analyzed via caspase-3 activity. The caspase-3 activity assay (EnzChek® Invitrogen, Waltham, MA, USA) was conducted according to manufacturer’s protocols as we previously described.

astrocyte (GFAP) = test: GFAP immunohistochemistry of astrocytes; type: in vivo, mouse
Protocol: (§1) Neuroinflammation is one of the most important pathogeneses in PD in addition to alpha-synuclein aggregation. To examine the effects of Pegasus on glial cell activation, we performed immunohistochemistry of astrocyte and microglia from the brains of treated vs. untreated young (6–7-month-old) and old (12–13-month-old) TgA53T mice.
Animals were deeply anesthetized with a mixture of Xylazine and Ketamine (8:80 mg/kg), washed with normal saline for 1 min, and then perfused with 4% paraformaldehyde (PFA) for 15 min. The brains were dissected out and immediately stored in 4% PFA for 24 h at 4 °C, and then transferred to 30% sucrose at 4 °C for 48 h. The brains were cut using a cryostat microtome into 20 µm thick coronal sections and stored at −20 °C. Staining for tyrosine hydroxylase (TH) was probed with anti-tyrosine hydroxylase antibody (Cat No: AB152, Sigma-Aldrich, St. Louis, MO, USA). GFAP (glial fibrillary acidic protein) was stained with anti-GFAP monoclonal antibody (Cat No:MS1376P1, Fisher Scientific, Newington, NH, USA). […] TH^+ cells were counted in a stereology-like manner across multiple visual fields (typically 20 fields) in a single animal, and the same procedure was repeated on several animals to obtain the best approximation of TH staining.

microglia (IBA1) = test: IBA1 immunohistochemistry of microglia; type: in vivo, mouse; conditions: young and old TgA53T mice, vs DMSO
Source text: as §1

TgA53T mice = test: Rotarod test in TgA53T mice; type: in vivo, mouse

Q: `C[C@H]1c2ccc(NC(=O)CCC(=O)NCCc3ccc(O)c(O)c3)c(O)c2C(=O)C2=C(O)[C@]3(O)C(=O)C(C(N)=O)=C(O)CC3[C@@H](O)C21` (some centres unmarked) [Pegasus] was tested. Which Forelimb grip strength [1] did it give?
A: Its Forelimb grip strength is “significantly reversed back to normal levels”.

Q: What about the “Concentration of DA in the brain” value [2] of the same compound?
A: The value was “significantly increases”.

Q: And the “Concentration of DA in the serum” value [2]?
A: Its value is “significantly increases”.

Q: And the “Concentration of HVA in the brain” value [2]?
A: The value was “significantly increases”.

Q: What about the “Concentration of HVA in the serum” value [2] of the same compound?
A: The value was “though not HVA in the serum”.

Q: What about the “Monomeric alpha-synuclein level (WB)” value (human alpha-synuclein) of the same compound?
A: The value was “significant decreases”.

Q: What about the “Oligomeric alpha-synuclein level (WB)” value (human alpha-synuclein) of the same compound?
A: The value was “significant decreases”.

Q: What about the “Caspase-3 activity in tissues” value (caspase-3 activity) of the same compound?
A: Its value is “no apparent toxicity in organs; also recorded: no significant changes in caspase-3 activity”.

Q: What about the “GFAP staining in other brain regions” value (astrocyte (GFAP); including the SN and cortex) of the same compound?
A: The value was “not appreciably different”.

Q: What about the “GFAP astrocyte reactivity in the hippocampus” value (astrocyte (GFAP); young (6–7-month-old) TgA53T mice, 50 mg/kg i.p., vs DMSO) of the same compound?
A: Its value is “significant reduction in astrocyte reactivity”.

Q: What about the “IBA1 staining in the hippocampus” value (microglia (IBA1)) of the same compound?
A: The value was “No differences in IBA1 staining”.

Q: What about the “Duration of improved Rotarod motor performance” value (TgA53T mice; 50 mg/kg for 3 weeks, TgA53T mice) of the same compound?
A: Its value is “up to 6.5 h”.

Q: And the Rotarod motor performance (TgA53T mice; 1–2 h post-injection, 50 mg/kg i.p. daily, 12–13 months old TgA53T mice, vs DMSO)?
A: Its Rotarod motor performance is “significantly improves motor performance”.

Q: And the Rotarod motor behavior (TgA53T mice; 2–3 h, 3–4 h and up to 5–6.5 h post-injection, 50 mg/kg i.p. daily, vs DMSO)?
A: Its Rotarod motor behavior is “continues to improve motor behavior”.
